{
  "source": "patent US8012956B2",
  "about": "“Tropane compounds” (Exelixis, Inc., priority 2007, dated 2011)",
  "data": [
    {"target": "HSP90 (Homo sapiens, UniProt P07900)", "assay": "HSP90 inhibition (HSP90 IC50)", "format": "biochemical", "units": {"IC50": "nM"}, "values": [
      {"smiles": "NC(=O)c1ccc(C(=O)N[C@H]2C[C@H]3CC[C@@H](C2)N3c2ccc(C(=O)CCN3CCOCC3)cn2)cc1NCC1CC1", "note": "[2-[(cyclopropylmethyl)amino]-N4-{8-[5-(3-morpholin-4-ylpropanoyl)pyridin-2-yl]-8-azabicyclo[3.2.1]oct-3-endo-yl}benzene-1,4-dicarboxamide]", "IC50": "< 500"},
      {"smiles": "NC(=O)c1ccc(C(=O)N[C@H]2C[C@H]3CC[C@@H](C2)N3c2ccc(C(=O)CCc3ccccc3)cn2)cc1NCC1CC1", "note": "[2-[(cyclopropylmethyl)amino]-N4-{8-[5-(3-phenylpropanoyl)pyridin-2-yl]-8-azabicyclo[3.2.1]oct-3-endo-yl}benzene-1,4-dicarboxamide]", "IC50": "2000 to 10000"},
      {"smiles": "NC(=O)c1ccc(C(=O)N[C@H]2C[C@H]3CC[C@@H](C2)N3c2ccc(C(=O)CCC3CCNCC3)cn2)cc1NCC1CC1", "note": "[2-[(cyclopropylmethyl)amino]-N4-{8-[5-(3-piperidin-4-ylpropanoyl)pyridin-2-yl]-8-azabicyclo[3.2.1]oct-3-endo-yl}benzene-1,4-dicarboxamide]", "IC50": "< 500"},
      {"smiles": "NC(=O)c1ccc(C(=O)N[C@H]2C[C@H]3CC[C@@H](C2)N3c2ccc(C(=O)CCN3CCCC3)cn2)cc1NCC1CC1", "note": "[2-[(cyclopropylmethyl)amino]-N4-{8-[5-(3-pyrrolidin-1-ylpropanoyl)pyridin-2-yl]-8-azabicyclo[3.2.1]oct-3-endo-yl}benzene-1,4-dicarboxamide]", "IC50": "< 500"},
      {"smiles": "NC(=O)c1ccc(C(=O)N[C@H]2C[C@H]3CC[C@@H](C2)N3c2ccc(C(=O)CCC(F)(F)F)cn2)cc1NCC1CC1", "note": "[2-[(cyclopropylmethyl)amino]-N4-{8-[5-(4,4,4-trifluorobutanoyl)pyridin-2-yl]-8-azabicyclo[3.2.1]oct-3-endo-yl}benzene-1,4-dicarboxamide]", "IC50": "2000 to 10000"},
      {"smiles": "CC(C)CCC(=O)c1ccc(N2[C@@H]3CC[C@H]2C[C@@H](NC(=O)c2ccc(C(N)=O)c(NCC4CC4)c2)C3)nc1", "note": "[2-[(cyclopropylmethyl)amino]-N4-{8-[5-(4-methylpentanoyl)pyridin-2-yl]-8-azabicyclo[3.2.1]oct-3-endo-yl}benzene-1,4-dicarboxamide]", "IC50": "< 500"},
      {"smiles": "CN(C)CCC(=O)c1ccc(N2[C@@H]3CC[C@H]2C[C@@H](NC(=O)c2ccc(C(N)=O)c(NCC4CC4)c2)C3)nc1", "note": "[2-[(cyclopropylmethyl)amino]-N4-{8-[5-(N,N-dimethyl-beta-alanyl)pyridin-2-yl]-8-azabicyclo[3.2.1]oct-3-endo-yl}benzene-1,4-dicarboxamide]", "IC50": "< 500"},
      {"smiles": "NC(=O)c1ccc(C(=O)N[C@H]2C[C@H]3CC[C@@H](C2)N3c2ccc(C(=O)CN3CCCCC3)cn2)cc1NCC1CC1", "note": "[2-[(cyclopropylmethyl)amino]-N4-{8-[5-(piperidin-1-ylacetyl)pyridin-2-yl]-8-azabicyclo[3.2.1]oct-3-endo-yl}benzene-1,4-dicarboxamide]", "IC50": "2000 to 10000"},
      {"smiles": "NC(=O)c1ccc(C(=O)N[C@H]2C[C@H]3CC[C@@H](C2)N3c2ccc(C(=O)C(F)(F)F)cn2)cc1NCC1CC1", "note": "[2-[(cyclopropylmethyl)amino]-N4-{8-[5-(trifluoroacetyl)pyridin-2-yl]-8-azabicyclo[3.2.1]oct-3-endo-yl}benzene-1,4-dicarboxamide]", "IC50": "2000 to 10000"},
      {"smiles": "NC(=O)c1cc(Br)c(C(=O)N[C@H]2C[C@H]3CC[C@@H](C2)N3c2ccc(C(=O)C3CC3)cn2)cc1NC1CCC1", "note": "[2-bromo-5-(cyclobutylamino)-N-{8-[5-(cyclopropylcarbonyl)pyridin-2-yl]-8-azabicyclo[3.2.1]oct-3-endo-yl}benzene-1,4-dicarboxamide]", "IC50": "< 500"},
      {"smiles": "NC(=O)c1cc(Br)c(C(=O)N[C@H]2C[C@H]3CC[C@@H](C2)N3c2ccc(C(=O)C3CC3)cn2)cc1NC1CCCC1", "note": "[2-bromo-5-(cyclopentylamino)-N-{8-[5-(cyclopropylcarbonyl)pyridin-2-yl]-8-azabicyclo[3.2.1]oct-3-endo-yl}benzene-1,4-dicarboxamide]", "IC50": "< 500"},
      {"smiles": "CC(C)Nc1cc(C(=O)N[C@H]2C[C@H]3CC[C@@H](C2)N3c2ccc(C(=O)C3CC3)cn2)c(Br)cc1C(N)=O", "note": "[2-bromo-N-{8-(5-(cyclopropylcarbonyl)pyridin-2-yl]-8-azabicyclo[3.2.1]oct-3-endo-yl}-5-[(1-methylethyl)amino]benzene-1,4-dicarboxamide]", "IC50": "< 500"},
      {"smiles": "CCCNc1cc(C(=O)N[C@H]2C[C@H]3CC[C@@H](C2)N3c2ccc(C(=O)C3CC3)cn2)c(Br)cc1C(N)=O", "note": "[2-bromo-N-{8-[5-(cyclopropylcarbonyl)pyridin-2-yl]-8-azabicyclo[3.2.1]oct-3-endo-yl}-5-(propylamino)benzene-1,4-dicarboxamide]", "IC50": "< 500"},
      {"smiles": "CC(C)(C)Nc1cc(C(=O)N[C@H]2C[C@H]3CC[C@@H](C2)N3c2ccc(C(=O)C3CC3)cn2)c(Br)cc1C(N)=O", "note": "[2-bromo-N-{8-[5-(cyclopropylcarbonyl)pyridin-2-yl]-8-azabicyclo[3.2.1]oct-3-endo-yl}-5-[(1,1-dimethylethyl)amino]benzene-1,4-dicarboxamide]", "IC50": "< 500"},
      {"smiles": "CCC(CC)Nc1cc(C(=O)N[C@H]2C[C@H]3CC[C@@H](C2)N3c2ccc(C(=O)C3CC3)cn2)c(Br)cc1C(N)=O", "note": "[2-bromo-N-{8-[5-(cyclopropylcarbonyl)pyridin-2-yl]-8-azabicyclo[3.2.1]oct-3-endo-yl}-5-[(1-ethylpropyl)amino]benzene-1,4-dicarboxamide]", "IC50": "< 500"},
      {"smiles": "CC(C)(C)CNc1cc(C(=O)N[C@H]2C[C@H]3CC[C@@H](C2)N3c2ccc(C(=O)C3CC3)cn2)c(Br)cc1C(N)=O", "note": "[2-bromo-N-{8-[5-(cyclopropylcarbonyl)pyridin-2-yl]-8-azabicyclo[3.2.1]oct-3-endo-yl}-5-[(2,2-dimethylpropyl)amino]benzene-1,4-dicarboxamide]", "IC50": "< 500"},
      {"smiles": "CC(C)CNc1cc(C(=O)N[C@H]2C[C@H]3CC[C@@H](C2)N3c2ccc(C(=O)C3CC3)cn2)c(Br)cc1C(N)=O", "note": "[2-bromo-N-{8-[5-(cyclopropylcarbonyl)pyridin-2-yl]-8-azabicyclo[3.2.1]oct-3-endo-yl}-5-[(2-methylpropyl)amino]benzene-1,4-dicarboxamide]", "IC50": "< 500"},
      {"smiles": "NC(=O)c1cc(Br)c(C(=O)N[C@H]2C[C@H]3CC[C@@H](C2)N3c2ccc(C(=O)C3CC3)cn2)cc1NCCC(F)(F)F", "note": "[2-bromo-N-{8-[5-(cyclopropylcarbonyl)pyridin-2-yl]-8-azabicyclo[3.2.1]oct-3-endo-yl}-5-[(3,3,3-trifluoropropyl)amino]benzene-1,4-dicarboxamide]", "IC50": "< 500"},
      {"smiles": "NC(=O)c1cc(Br)c(C(=O)N[C@H]2C[C@H]3CC[C@@H](C2)N3c2ccc(C(=O)C3CC3)cn2)cc1NCC1CC1", "note": "[2-bromo-N-{8-[5-(cyclopropylcarbonyl)pyridin-2-yl]-8-azabicyclo[3.2.1]oct-3-endo-yl}-5-[(cyclopropylmethyl)amino]benzene-1,4-dicarboxamide]", "IC50": "< 500"},
      {"smiles": "CC(C)[C@@H](C)Nc1cc(C(=O)NC2CC3CCC(C2)N3c2ccc(C(=O)C3CC3)cn2)c(Br)cc1C(N)=O", "note": "(stereo partly drawn) [2-bromo-N-{8-[5-(cyclopropylcarbonyl)pyridin-2-yl]-8-azabicyclo[3.2.1]oct-3-endo-yl}-5-{[(1R)-1 2-dimethylpropyl]amino}benzene-1,4-dicarboxamide]", "IC50": "< 500"},
      {"smiles": "CC[C@@H](C)Nc1cc(C(=O)NC2CC3CCC(C2)N3c2ccc(C(=O)C3CC3)cn2)c(Br)cc1C(N)=O", "note": "(stereo partly drawn) [2-bromo-N-{8-[5-(cyclopropylcarbonyl)pyridin-2-yl]-8-azabicyclo[3.2.1]oct-3-endo-yl}-5-{[(1R)-1-methylpropyl]amino}benzene-1,4-dicarboxamide]", "IC50": "< 500"},
      {"smiles": "CC(C)[C@H](C)Nc1cc(C(=O)NC2CC3CCC(C2)N3c2ccc(C(=O)C3CC3)cn2)c(Br)cc1C(N)=O", "note": "(stereo partly drawn) [2-bromo-N-{8-[5-(cyclopropylcarbonyl)pyridin-2-yl]-8-azabicyclo[3.2.1]oct-3-endo-yl}-5-{[(1S)-1,2-dimethylpropyl]amino}benzene-1,4-dicarboxamide]", "IC50": "< 500"},
      {"smiles": "CC(Nc1c(C(N)=O)ccc(C(=O)N[C@H]2C[C@H]3CC[C@@H](C2)N3c2ccc(C(=O)C3CC3)cn2)c1Cl)C1CC1", "note": "(stereo partly drawn) [2-chloro-N-{8-[5-(cyclopropylcarbonyl)pyridin-2-yl]-8-azabicyclo[3.2.1]oct-3-endo-yl}-3-[(1-cyclopropylethyl)amino]benzene-1,4-dicarboxamide]", "IC50": "< 500"},
      {"smiles": "CCC(CC)Nc1cc(C(=O)N[C@H]2C[C@H]3CC[C@@H](C2)N3c2ccc(C(=O)C3CC3)cn2)c(Cl)cc1C(N)=O", "note": "[2-chloro-N-{8-[5-(cyclopropylcarbonyl)pyridin-2-yl]-8-azabicyclo[3.2.1]oct-3-endo-yl}-5-[(1-ethylpropyl)amino]benzene-1,4-dicarboxamide]", "IC50": "< 500"},
      {"smiles": "COc1c(C(N)=O)ccc(C(=O)NC2CC3CCC(C2)N3c2ccc(C(=O)N[C@@H](C)c3ccc(N4CCN(C)CC4)cc3)cn2)c1C", "note": "(stereo partly drawn) [2-methyl-3-(methyloxy)-N-(8-{5-[({(1S)-1-[4-(4-methylpiperazin-1-yl)phenyl]ethyl}amino)carbonyl]pyridin-2-yl}-8-azabicyclo[3.2.1]oct-3-endo-yl)benzene-1,4-dicarboxamide]", "IC50": "< 500"},
      {"smiles": "Cc1c(OC(N)=O)cccc1C(=O)N[C@H]1C[C@H]2CC[C@@H](C1)N2c1ccc(C(=O)NCc2ccccc2)cn1", "note": "[2-methyl-3-({[8-(5-{[(phenylmethyl)amino]carbonyl}pyridin-2-yl)-8-azabicyclo[3.2.1]oct-3-endo-yl]amino}carbonyl)phenyl carbamate]", "IC50": "2000 to 10000"},
      {"smiles": "Cc1cc(C(N)=O)ccc1C(=O)N[C@H]1C[C@H]2CC[C@@H](C1)N2c1ccc(C(=O)NCc2ccccc2)cn1", "note": "[2-methyl-N 1-[8-(5-{[(phenylmethyl)amino]carbonyl}pyridin-2-yl)-8-azabicyclo[3.2.1]oct-3-endo-yl]benzene-1,4-dicarboxamide]", "IC50": "500 to 999"},
      {"smiles": "Cc1c(C(N)=O)cccc1C(=O)N[C@H]1C[C@H]2CC[C@@H](C1)N2c1ccc(C(=O)NCc2ccccc2)cn1", "note": "[2-methyl-N-[8-(5-{[(phenylmethyl)amino]carbonyl}pyridin-2-yl)-8-azabicyclo[3.2.1]oct-3-endo-yl]benzene-1,3-dicarboxamide]", "IC50": "2000 to 10000"},
      {"smiles": "CCNc1c(C)c(C(=O)NC2CC3CCC(C2)N3c2ccc(C(=O)N[C@@H](C)c3ccc(N4CCN(C)CC4)cc3)cn2)cc(C)c1C(N)=O", "note": "(stereo partly drawn) [3-(ethylamino)-2,5-dimethyl-N1-(8-{5-[({(1S)-1-[4-(4-methylpiperazin-1-yl)phenyl]ethyl}amino)carbonyl]pyridin-2-yl}-8-azabicyclo[3.2.1]oct-3-endo-yl)benzene-1,4-dicarboxamide]", "IC50": "2000 to 10000"}
    ]}
  ]
}
